According to US20260365670A1, “EGFR INHIBITORS AND USES THEREOF” (DIZAL (JIANGSU) PHARMACEUTICAL CO., LTD., priority 2022, published 2026):
Read-outs that look alike come from different tables or passages of the source.

Key:
[1] = molecular target: T1, EGFR wild type (Homo sapiens, UniProt P00533); experiment: Inhibition of EGFR wild type biochemical enzymatic activity (HTRF); details: EGFR WT, 1 mM ATP, 1 h, room temperature, read-out: IC50 (nM) @WT
T1 construct: purchased Carna Bio
Outline: (§1)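 Kinase activity is measured by HTRF detection of biotinylated TK substrate (1 μM) phosphorylation at 1 mM ATP. Incubation lasts 1 h at room temperature before an EDTA stop, and IC50 is fitted with a four-parameter logistic model.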

[2] = molecular target: T2, EGFR L858R (Homo sapiens, UniProt P00533, L858R); experiment: Inhibition of EGFR L858R biochemical enzymatic activity (HTRF); details: 1 mM ATP, 1 h, room temperature, read-out: IC50 (nM) @L858R
T2 construct: purchased Carna Bio
Outline: as §1

[3] = molecular target: T3, EGFR L858R/T790M (Homo sapiens, UniProt P00533, L858R/T790M); experiment: Inhibition of EGFR L858R/T790M biochemical enzymatic activity (HTRF); details: EGFR L858R-T790M, 1 mM ATP, 1 h, room temperature, read-out: IC50 (nM) @L858R-T790M
T3 construct: purchased Carna Bio
Outline: as §1

[4] = molecular target: T4, EGFR Exon19Del (Homo sapiens, UniProt P00533, DEL746-750); experiment: Inhibition of EGFR Exon19Del biochemical enzymatic activity (HTRF); details: EGFR Del19, 1 mM ATP, 1 h, room temperature, read-out: IC50 @Del19
T4 construct: purchased Carna Bio
Outline: as §1

[5] = molecular target: T5, EGFR Exon19Del/T790M (Homo sapiens, UniProt P00533, DEL746-750/T790M); experiment: Inhibition of EGFR Exon19Del/T790M biochemical enzymatic activity (HTRF); details: EGFR Del19-T790M, 1 mM ATP, 1 h, room temperature, read-out: IC50 (nM) @Del19-T790M
T5 construct: purchased Carna Bio
Outline: as §1

[6] = molecular target: T6, EGFR[T790M/C797S/L858R] (Homo sapiens, UniProt P00533, C797S/L858R/T790M); experiment: Inhibition of EGFR[T790M/C797S/L858R] biochemical enzymatic activity (HTRF); details: EGFR T790M-C797S-L858R, 1 mM ATP, 1 h, room temperature, read-out: IC50 (nM) @T790M- C797S - L858R
T6 construct: purchased Carna Bio
Outline: as §1

[7] = molecular target: T7, EGFR[T790M/C797S/d746-750] (Homo sapiens, UniProt P00533, C797S/DEL746-750/T790M); experiment: Inhibition of EGFR[T790M/C797S/d746-750] biochemical enzymatic activity (HTRF); details: EGFR T790M-C797S-Del19, 1 mM ATP, 1 h, room temperature, read-out: IC50 (nM) @T790M - C797S - Del19
T7 construct: purchased Carna Bio
Outline: as §1

[8] = molecular target: T8, EGFR (d746-750 C797S) (Homo sapiens, UniProt P00533, C797S/DEL746-750); experiment: Inhibition of EGFR (d746-750 C797S) biochemical enzymatic activity (HTRF); details: EGFR Del19-C797S, 1 mM ATP, 1 h, room temperature, read-out: IC50 (nM) @Del19-C797S
T8 construct: purchased signalchem
Outline: as §1

[9] = molecular target: T9, EGFR (C797S L858R) (Homo sapiens, UniProt P00533, C797S/L858R); experiment: Inhibition of EGFR (C797S L858R) biochemical enzymatic activity (HTRF); details: EGFR L858-C797S, 1 mM ATP, 1 h, room temperature, read-out: IC50 (nM) @L858-C797S
T9 construct: purchased signalchem
Outline: as §1

[10] = system: Ba/F3 cells expressing EGFR mutations; experiment: Cell proliferation assay, Ba/F3 cells expressing EGFR mutations (CellTiter-Glo, 72 hours); assay type: cell-based; details: Mus musculus, BaF3, 72 h, CellTiter-Glo
Outline: (§2)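 GI50 is the concentration giving 50% proliferation inhibition. Growth for this was normalised to a baseline viability reading taken when compound was added, and to DMSO wells. PC-9 (500 cells/well) and mutant-EGFR Ba/F3 (5000 cells/well) are treated after overnight seeding in RPMI1640-based medium.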

[11] = system: PC-9; experiment: Cell proliferation assay, PC-9 cells (CellTiter-Glo, 72 hours); assay type: cell-based; details: Homo sapiens, PC-9, 72 h, PC9 cells, CellTiter-Glo, read-out: PC9 GI50
Outline: as §2

[12] = system: A-431; experiment: Cell proliferation GI50, A-431 cells (Table 6); assay type: cell-based; details: Homo sapiens, A-431, A-431 cells
[13] = BaF3 cells, EGFR DEL19-C797S, read-out: DEL19-C797S/BaF3 GI50
[14] = BaF3 cells, EGFR DEL19-T790-C797S, read-out: DEL19-T790-C797S/BaF3 GI50
[15] = BaF3 cells, EGFR L858R, read-out: L858R/BaF3 GI50
[16] = BaF3 cells, EGFR L858R-C797S, read-out: L858R-C797S/BaF3 GI50
[17] = BaF3 cells, EGFR L858R-T790-C797S, read-out: L858R-T790-C797S/BaF3 GI50
[18] = BaF3 cells, EGFR L858R-T790M, read-out: L858R-T790M/BaF3 GI50
[19] = EGFR DEL19-T790M, read-out: DEL19-T790M GI50

T1 sequence (P00533 25-1210): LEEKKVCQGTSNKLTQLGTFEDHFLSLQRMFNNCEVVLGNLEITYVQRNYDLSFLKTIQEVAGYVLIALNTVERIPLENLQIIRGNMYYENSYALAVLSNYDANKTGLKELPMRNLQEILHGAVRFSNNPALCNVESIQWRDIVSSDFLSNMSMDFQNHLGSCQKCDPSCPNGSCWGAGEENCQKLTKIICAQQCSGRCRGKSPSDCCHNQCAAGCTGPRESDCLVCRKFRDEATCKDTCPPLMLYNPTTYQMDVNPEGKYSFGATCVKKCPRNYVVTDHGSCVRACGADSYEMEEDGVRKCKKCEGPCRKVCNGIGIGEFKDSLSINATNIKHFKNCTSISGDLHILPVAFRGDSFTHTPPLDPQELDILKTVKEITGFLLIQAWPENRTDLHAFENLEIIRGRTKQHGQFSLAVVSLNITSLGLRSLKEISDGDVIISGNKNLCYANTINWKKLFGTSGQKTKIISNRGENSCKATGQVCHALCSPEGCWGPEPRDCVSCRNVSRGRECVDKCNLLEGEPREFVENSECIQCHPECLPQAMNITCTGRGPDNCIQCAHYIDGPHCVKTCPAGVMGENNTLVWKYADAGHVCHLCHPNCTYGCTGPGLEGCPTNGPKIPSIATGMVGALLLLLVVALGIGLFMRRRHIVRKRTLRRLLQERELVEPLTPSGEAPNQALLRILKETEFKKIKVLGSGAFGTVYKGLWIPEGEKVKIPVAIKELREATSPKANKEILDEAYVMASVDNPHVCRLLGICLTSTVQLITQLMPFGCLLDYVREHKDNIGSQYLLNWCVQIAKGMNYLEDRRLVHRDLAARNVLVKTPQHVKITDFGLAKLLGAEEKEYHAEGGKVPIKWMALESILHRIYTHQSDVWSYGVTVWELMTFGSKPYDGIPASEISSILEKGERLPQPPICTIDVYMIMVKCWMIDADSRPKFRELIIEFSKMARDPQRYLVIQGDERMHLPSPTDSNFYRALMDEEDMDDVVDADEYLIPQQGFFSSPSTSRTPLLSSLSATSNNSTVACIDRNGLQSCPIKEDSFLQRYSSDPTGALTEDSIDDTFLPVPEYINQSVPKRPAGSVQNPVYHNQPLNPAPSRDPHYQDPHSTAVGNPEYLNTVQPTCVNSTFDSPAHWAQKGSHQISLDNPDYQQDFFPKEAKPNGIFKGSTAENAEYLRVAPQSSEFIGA
T8 sequence (P00533 with tags, fused parts or gaps DEL746-750/C797S limits assumed): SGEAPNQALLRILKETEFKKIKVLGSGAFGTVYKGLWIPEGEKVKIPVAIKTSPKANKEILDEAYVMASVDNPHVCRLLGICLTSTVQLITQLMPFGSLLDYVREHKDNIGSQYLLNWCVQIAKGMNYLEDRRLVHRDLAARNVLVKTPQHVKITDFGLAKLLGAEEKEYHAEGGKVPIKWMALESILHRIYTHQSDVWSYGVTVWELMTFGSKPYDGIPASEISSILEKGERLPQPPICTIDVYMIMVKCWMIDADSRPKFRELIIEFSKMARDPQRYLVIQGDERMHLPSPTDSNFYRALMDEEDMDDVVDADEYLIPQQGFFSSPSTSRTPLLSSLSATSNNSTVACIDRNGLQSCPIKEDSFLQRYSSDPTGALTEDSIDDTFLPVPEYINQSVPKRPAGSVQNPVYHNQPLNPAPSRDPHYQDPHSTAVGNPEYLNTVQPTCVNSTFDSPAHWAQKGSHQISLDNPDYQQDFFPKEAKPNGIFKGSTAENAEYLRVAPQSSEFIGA
T3 sequence (P00533 25-1210 T790M/L858R): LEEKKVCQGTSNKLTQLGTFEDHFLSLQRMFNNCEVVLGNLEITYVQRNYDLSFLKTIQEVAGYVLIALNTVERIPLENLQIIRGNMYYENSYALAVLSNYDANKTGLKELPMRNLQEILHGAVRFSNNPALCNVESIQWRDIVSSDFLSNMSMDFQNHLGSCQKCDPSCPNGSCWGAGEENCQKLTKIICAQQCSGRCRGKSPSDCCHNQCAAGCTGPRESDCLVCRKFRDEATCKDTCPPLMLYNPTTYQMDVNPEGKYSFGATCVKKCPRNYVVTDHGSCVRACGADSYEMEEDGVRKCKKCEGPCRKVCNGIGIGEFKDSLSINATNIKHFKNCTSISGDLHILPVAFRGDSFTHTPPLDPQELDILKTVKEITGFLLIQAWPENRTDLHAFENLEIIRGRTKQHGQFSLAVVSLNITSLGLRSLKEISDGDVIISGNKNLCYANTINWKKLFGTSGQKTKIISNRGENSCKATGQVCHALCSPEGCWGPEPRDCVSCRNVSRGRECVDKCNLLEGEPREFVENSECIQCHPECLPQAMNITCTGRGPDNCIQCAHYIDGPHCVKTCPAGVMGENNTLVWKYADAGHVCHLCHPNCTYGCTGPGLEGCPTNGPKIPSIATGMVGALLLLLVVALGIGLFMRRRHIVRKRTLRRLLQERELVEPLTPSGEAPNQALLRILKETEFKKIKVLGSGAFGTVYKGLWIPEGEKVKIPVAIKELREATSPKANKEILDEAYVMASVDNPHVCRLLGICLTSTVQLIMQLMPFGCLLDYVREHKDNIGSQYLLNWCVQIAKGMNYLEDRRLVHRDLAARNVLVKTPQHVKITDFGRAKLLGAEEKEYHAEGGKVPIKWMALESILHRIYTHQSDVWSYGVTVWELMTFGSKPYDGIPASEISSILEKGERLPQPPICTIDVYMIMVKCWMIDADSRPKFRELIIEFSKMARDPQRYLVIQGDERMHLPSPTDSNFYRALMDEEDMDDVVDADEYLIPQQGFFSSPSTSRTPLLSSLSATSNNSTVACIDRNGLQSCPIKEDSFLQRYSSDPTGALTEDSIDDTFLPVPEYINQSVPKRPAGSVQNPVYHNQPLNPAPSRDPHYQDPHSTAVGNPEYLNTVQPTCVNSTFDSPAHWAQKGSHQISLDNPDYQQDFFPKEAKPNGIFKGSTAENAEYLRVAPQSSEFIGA
T5 sequence (P00533 with tags, fused parts or gaps DEL746-750/T790M limits assumed): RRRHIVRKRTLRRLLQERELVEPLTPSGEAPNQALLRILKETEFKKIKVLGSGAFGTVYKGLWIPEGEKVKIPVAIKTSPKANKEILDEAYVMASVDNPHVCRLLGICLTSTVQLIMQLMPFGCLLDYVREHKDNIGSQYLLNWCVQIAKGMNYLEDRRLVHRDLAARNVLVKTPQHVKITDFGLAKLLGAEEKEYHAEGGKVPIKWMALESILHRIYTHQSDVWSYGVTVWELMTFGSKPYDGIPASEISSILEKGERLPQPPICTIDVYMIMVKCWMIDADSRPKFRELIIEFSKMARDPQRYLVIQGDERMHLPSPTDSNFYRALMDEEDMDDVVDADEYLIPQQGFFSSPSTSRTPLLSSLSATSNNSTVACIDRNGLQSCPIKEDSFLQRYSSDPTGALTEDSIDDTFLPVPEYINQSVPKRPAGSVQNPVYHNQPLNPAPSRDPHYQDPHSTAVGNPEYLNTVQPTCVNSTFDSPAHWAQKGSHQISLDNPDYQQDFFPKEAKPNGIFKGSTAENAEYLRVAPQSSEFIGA
T2 sequence (P00533 25-1210 L858R): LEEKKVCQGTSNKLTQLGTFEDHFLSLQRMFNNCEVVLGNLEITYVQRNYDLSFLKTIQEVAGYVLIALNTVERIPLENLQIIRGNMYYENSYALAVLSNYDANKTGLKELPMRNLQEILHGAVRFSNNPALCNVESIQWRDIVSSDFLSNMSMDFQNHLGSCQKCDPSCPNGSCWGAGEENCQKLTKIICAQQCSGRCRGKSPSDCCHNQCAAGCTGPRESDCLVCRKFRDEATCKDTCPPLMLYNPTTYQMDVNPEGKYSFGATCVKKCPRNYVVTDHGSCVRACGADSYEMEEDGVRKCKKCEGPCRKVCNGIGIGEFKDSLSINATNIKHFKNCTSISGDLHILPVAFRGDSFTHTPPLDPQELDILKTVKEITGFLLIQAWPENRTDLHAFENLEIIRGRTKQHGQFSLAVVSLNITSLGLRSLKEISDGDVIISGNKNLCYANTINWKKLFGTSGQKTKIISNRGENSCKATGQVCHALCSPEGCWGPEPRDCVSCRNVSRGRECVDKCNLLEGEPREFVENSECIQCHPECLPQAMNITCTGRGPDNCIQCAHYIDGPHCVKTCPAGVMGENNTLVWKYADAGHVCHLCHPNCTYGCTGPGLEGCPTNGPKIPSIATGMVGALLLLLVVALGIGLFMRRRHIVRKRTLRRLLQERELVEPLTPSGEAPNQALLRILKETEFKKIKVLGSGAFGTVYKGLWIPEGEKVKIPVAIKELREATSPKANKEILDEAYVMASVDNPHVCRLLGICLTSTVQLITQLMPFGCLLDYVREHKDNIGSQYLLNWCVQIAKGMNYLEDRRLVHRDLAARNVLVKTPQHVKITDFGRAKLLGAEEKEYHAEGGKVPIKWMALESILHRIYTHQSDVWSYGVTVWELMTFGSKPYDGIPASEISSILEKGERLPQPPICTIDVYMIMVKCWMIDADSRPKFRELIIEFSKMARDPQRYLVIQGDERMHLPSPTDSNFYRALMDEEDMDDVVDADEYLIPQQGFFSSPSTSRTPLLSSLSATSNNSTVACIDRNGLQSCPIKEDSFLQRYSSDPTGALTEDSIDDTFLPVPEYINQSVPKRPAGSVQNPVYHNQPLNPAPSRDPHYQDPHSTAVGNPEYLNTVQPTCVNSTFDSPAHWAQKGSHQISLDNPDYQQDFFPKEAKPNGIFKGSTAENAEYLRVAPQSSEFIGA

IC50 [1]	IC50 [2]	IC50 [3]	IC50 [4]	IC50 [5]	IC50 [6]	IC50 [7]	IC50 [8]	IC50 [9]	GI50 [10, 13]	GI50 [10, 14]	GI50 [10, 15]	GI50 [10, 16]	GI50 [10, 17]	GI50 [10, 18]	GI50 [10, 19]	GI50 [11]	GI50 [12]	Compound
1200 nM	86 nM	6.3 nM	9.1 nM	6.2 nM	5.8 nM	6.5 nM	6.5 nM	25 nM	9.3 nM	11 nM	30 nM	22 nM	9.6 nM	51 nM	20 nM	87 nM	2290 nM	C[C@@H]1CCCOc2c(cnn2C2CC2)-c2cc(cn(C)c2=O)C(=O)Nc2nc3ccc(N4CCN(C)CC4)cc3n2C1 [Example A22, (11R)-5-Cyclopropyl-11,26-dimethyl-16-(4-methylpiperazin-1-yl)-7-oxa-4,5,13,20,22,26-hexaazapentacyclo[22.3.1.0^{2,6}.0^{13,21}.0^{14,19}]octacosa-1(28),2(6),3,14,16,18,20,24-octaene-23,27-dione]
> 5000 nM	207 nM	12 nM	4.7 nM	3 nM	2.7 nM	2.7 nM	3 nM	61 nM	4 nM	11 nM	104 nM	32 nM	12 nM	151 nM	10 nM	208 nM	2820 nM	C[C@@H]1CCCOc2c(cnn2C)-c2cc(cn(C)c2=O)C(=O)Nc2nc3ccc(N4CCNCC4)c(Cl)c3n2C1 [Example A23, (11R)-15-chloro-5,11,26-trimethyl-16-(piperazin-1-yl)-7-oxa-4,5,13,20,22,26-hexaazapentacyclo[22.3.1.0^{2,6}.0^{13,21}.0^{14,19}]octacosa-1(28),2(6),3,14,16,18,20,24-octaene-23,27-dione]
323 nM	24 nM	2 nM	1.6 nM	1.6 nM	1.6 nM	1.6 nM	1 nM	6 nM	1.4 nM	13 nM	2.4 nM	9.3 nM	5.6 nM	16 nM	9.2 nM	12 nM	486 nM	C[C@@H]1CCCOc2c(cnn2C)-c2cc(cn(C)c2=O)C(=O)Nc2nc3ccc(N4CCN(C)CC4)cc3n2C1 [Example A25, (11R)-5,11,26-trimethyl-16-(4-methylpiperazin-1-yl)-7-oxa-4,5,13,20,22,26-hexaazapentacyclo[22.3.1.0^{2,6}.0^{13,21}.0^{14,19}]octacosa-1(28),2(6),3,14,16,18,20,24-octaene-23,27-dione]
1090 nM	68 nM	19 nM	8 nM	5 nM	16 nM	5.6 nM	2.9 nM	33 nM	2.1 nM	16 nM	18 nM	4.6 nM	12 nM	28 nM	18 nM	18 nM	405 nM	C[C@@H]1CCCOc2c(cnn2C)-c2cc(cn(C)c2=O)C(=O)Nc2nc3ccc(N4CCOCC4)cc3n2C1 [Example A26, (11R) 5,11,26-trimethyl-16-(morpholin-4-yl)-7-oxa-4,5,13,20,22,26-hexaazapentacyclo[22.3.1.0^{2,6}.0^{13,21}.0^{14,19}]octacosa-1(28),2(6),3,14,16,18,20,24-octaene-23,27-dione]
290 nM	25 nM	26 nM	6.1 nM	15 nM	20 nM	13 nM	5.5 nM	21 nM	1.2 nM	1.9 nM	3 nM	7.1 nM	2.2 nM	6.8 nM	3.5 nM	21 nM	453 nM	C[C@@H]1CCCOc2c(cnn2C)-c2cc(cn(C)c2=O)C(=O)Nc2nc3ccc(N4CCC(N(C)C)C4)cc3n2C1 (stereo partly drawn) [Example A27, (11R)-16-[3-(Dimethylamino)pyrrolidin-1-yl]-5,11,26-trimethyl-7-oxa-4,5,13,20,22,26-hexaazapentacyclo[22.3.1.0^{2,6}.0^{13,21}.0^{14,19}]octacosa-1(28),2(6),3,14,16,18,20,24-octaene-23,27-dione]
4140 nM	174 nM	137 nM	21 nM	22 nM	100 nM	21 nM	14 nM	93 nM	2.4 nM	4.7 nM	4.5 nM	16 nM	3.6 nM	9.4 nM	6.7 nM	38 nM	452 nM	C[C@@H]1CCCOc2c(cnn2C)-c2cc(cn(C)c2=O)C(=O)Nc2nc3ccc(N4CCC(N5CCOCC5)C4)cc3n2C1 (stereo partly drawn) [Example A28]
109 nM	14 nM	15 nM	3.8 nM	7.6 nM	8.9 nM	8.2 nM	2.1 nM	7.9 nM	0.41 nM	1 nM	2.1 nM	2.8 nM	0.78 nM	2.5 nM	1.9 nM	7.1 nM	247 nM	C[C@@H]1CCCOc2c(cnn2C)-c2cc(cn(C)c2=O)C(=O)Nc2nc3ccc(N4CCC(N5CCN(C)CC5)CC4)cc3n2C1 [Example A29]
22 nM	7.3 nM	5.8 nM	3.1 nM	3.4 nM	5.2 nM	3.1 nM	2.1 nM	6 nM	0.4 nM	0.58 nM	1.1 nM	2.2 nM	2.3 nM	3.4 nM	3.2 nM	4.8 nM	366 nM	C[C@@H]1CCCOc2c(cnn2C)-c2cc(cn(C)c2=O)C(=O)Nc2nc3ccc(N4CCC(N5CCN(C)CC5)C4)cc3n2C1 (stereo partly drawn) [Example A33]
2.7 nM	1.5 nM	2.2 nM	1.1 nM	1.9 nM	2 nM	2 nM	0.84 nM	1.8 nM	0.38 nM	0.5 nM	0.53 nM	1.7 nM	1 nM	3.4 nM	1.6 nM	3.7 nM	215 nM	C[C@@H]1CCCOc2c(cnn2C)-c2cc(cn(C)c2=O)C(=O)Nc2nc3ccc(N4CCC5(CCN(C)C5)CC4)cc3n2C1 [Example A35]
